# Results as given in PubChem BioAssay (NCI).
#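 Compound exposure: 48 hours, 5 concentrations, 96-well plates. At the TGI there is no net growth.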 Where a SMILES comes first, the peptide text is derived from it.
# Key:
# Test in all cases: NCI-60 cell line screen, 48 h
# [1] = test system: HS 578T breast
# [2] = test system: M14 melanoma
# [3] = test system: MOLT-4 leukemia
# [4] = test system: A549 NSCLC
# [5] = test system: EKVX NSCLC
# [6] = test system: OVCAR-5 ovarian
# [7] = test system: OVCAR-3 ovarian
# [8] = test system: NCI/ADR-RES ovarian
# [9] = test system: KM12 colon
# [10] = test system: SK-OV-3 ovarian
# [11] = test system: SN12C renal
# [12] = test system: HT29 colon
# [13] = test system: MCF7 breast
# [14] = test system: HCC-2998 colon
# [15] = test system: SF-268 CNS
# [16] = test system: HCT-15 colon
# [17] = test system: UACC-62 melanoma
# [18] = test system: A498 renal
# [19] = test system: MDA-MB-435
# [20] = test system: MDA-MB-231 breast
# [21] = test system: HCT-116 colon
# [22] = test system: SK-MEL-28 melanoma
# [23] = test system: OVCAR-4 ovarian
# [24] = test system: CAKI-1 renal
# [25] = test system: COLO 205 colon
# [26] = test system: HOP-62 NSCLC
# [27] = test system: NCI-H522 lung
# [28] = test system: UACC-257 melanoma
# [29] = test system: SR leukemia
# [30] = test system: NCI-H226 lung
# [31] = test system: K-562 leukemia
# [32] = test system: SNB-19 CNS
# [33] = test system: PC-3 prostate
# [34] = test system: DU-145 prostate
# [35] = test system: IGROV1 ovarian
# [36] = test system: SK-MEL-2 melanoma
# [37] = test system: NCI-H23 lung
# [38] = test system: RXF 393 renal
# [39] = test system: BT-549 breast
# [40] = test system: U251 CNS
# [41] = test system: MALME-3M melanoma
# [42] = test system: T-47D breast
# [43] = test system: LOX IMVI melanoma
# [44] = test system: NCI-H460 lung
# [45] = test system: RPMI-8226 leukemia
# [46] = test system: SK-MEL-5 melanoma
# [47] = test system: SF-295 CNS
# [48] = test system: 786-0 renal
# [49] = test system: OVCAR-8 ovarian
# [50] = test system: CCRF-CEM leukemia
# [51] = test system: MDA-N
# [52] = test system: SF-539 CNS
# [53] = test system: TK-10 renal
# [54] = test system: HL-60(TB) leukemia
# [55] = test system: ACHN renal
# [56] = test system: SW-620 colon
# [57] = test system: UO-31 renal
# [58] = test system: HOP-92 NSCLC
# [59] = test system: SNB-75 CNS
smiles,measurement,setting,value
Cc1cccc(NC(=O)CCl)c1,TGI,[1],> 10 µM
same,TGI,[2],> 10 µM
same,TGI,[3],> 10 µM
same,TGI,[4],> 10 µM
same,TGI,[5],> 10 µM
same,TGI,[6],> 10 µM
same,TGI,[7],> 10 µM
same,TGI,[8],> 10 µM
same,TGI,[9],> 10 µM
same,TGI,[10],> 10 µM
same,TGI,[11],> 10 µM
same,TGI,[12],> 10 µM
same,TGI,[13],> 10 µM
same,TGI,[14],> 10 µM
same,TGI,[15],> 10 µM
same,TGI,[16],> 10 µM
same,TGI,[17],> 10 µM
same,TGI,[18],> 10 µM
same,TGI,[19],> 10 µM
same,TGI,[20],> 10 µM
same,TGI,[21],> 10 µM
same,TGI,[22],> 10 µM
same,TGI,[23],8.18 µM
same,TGI,[24],> 10 µM
same,TGI,[25],> 10 µM
same,TGI,[26],> 10 µM
same,TGI,[27],4.32 µM
same,TGI,[28],> 10 µM
same,TGI,[29],> 10 µM
same,TGI,[30],> 10 µM
same,TGI,[31],> 10 µM
same,TGI,[32],> 10 µM
same,TGI,[33],> 10 µM
same,TGI,[34],> 10 µM
same,TGI,[35],> 10 µM
same,TGI,[36],> 10 µM
same,TGI,[37],> 10 µM
same,TGI,[38],> 10 µM
same,TGI,[39],> 10 µM
same,TGI,[40],5.64 µM
same,TGI,[41],> 10 µM
same,TGI,[42],> 10 µM
same,TGI,[43],> 10 µM
same,TGI,[44],> 10 µM
same,TGI,[45],> 10 µM
same,TGI,[46],> 10 µM
same,TGI,[47],> 10 µM
same,TGI,[48],> 10 µM
same,TGI,[49],> 10 µM
same,TGI,[50],8.83 µM
same,TGI,[51],> 10 µM
same,TGI,[52],> 10 µM
same,TGI,[53],> 10 µM
same,TGI,[54],> 10 µM
same,TGI,[55],> 10 µM
same,TGI,[56],> 10 µM
O=C1c2ccccc2C(=O)c2c1ccc(C(=O)O)c2-c1ccc2ccccc2c1,TGI,[1],80.7 µM
same,TGI,[2],54.1 µM
same,TGI,[3],53 µM
same,TGI,[4],> 100 µM
same,TGI,[5],81 µM
same,TGI,[6],59.3 µM
same,TGI,[7],65.3 µM
same,TGI,[8],> 100 µM
same,TGI,[9],> 100 µM
same,TGI,[10],> 100 µM
same,TGI,[11],88.8 µM
same,TGI,[12],> 100 µM
same,TGI,[13],81.8 µM
same,TGI,[14],> 100 µM
same,TGI,[15],98.1 µM
same,TGI,[16],56.6 µM
same,TGI,[17],37.8 µM
same,TGI,[18],85.5 µM
same,TGI,[19],60 µM
same,TGI,[20],73.9 µM
same,TGI,[21],47.7 µM
same,TGI,[22],> 100 µM
same,TGI,[23],> 100 µM
same,TGI,[24],> 100 µM
same,TGI,[25],30.1 µM
same,TGI,[26],> 100 µM
same,TGI,[27],59.3 µM
same,TGI,[28],> 100 µM
same,TGI,[29],51.6 µM
same,TGI,[30],79.6 µM
same,TGI,[57],83.3 µM
same,TGI,[31],85.7 µM
same,TGI,[32],> 100 µM
same,TGI,[33],72.4 µM
same,TGI,[34],46.6 µM
same,TGI,[35],68.3 µM
same,TGI,[36],48.5 µM
same,TGI,[37],46.5 µM
same,TGI,[39],68.3 µM
same,TGI,[40],55.4 µM
same,TGI,[41],70.7 µM
same,TGI,[42],18.1 µM
same,TGI,[43],41.6 µM
same,TGI,[44],> 100 µM
same,TGI,[45],83.8 µM
same,TGI,[46],39.4 µM
same,TGI,[47],81 µM
same,TGI,[48],> 100 µM
same,TGI,[49],> 100 µM
same,TGI,[50],52.4 µM
same,TGI,[51],79.2 µM
same,TGI,[52],50.4 µM
same,TGI,[53],> 100 µM
same,TGI,[54],61.2 µM
same,TGI,[55],> 100 µM
same,TGI,[56],89.5 µM
Nc1ccc2cc3[nH]c4cc(N)ccc4c3nc2c1,TGI,[1],2.57 µM
same,TGI,[2],1.36 µM
same,TGI,[3],6.76 µM
same,TGI,[4],3.38 µM
same,TGI,[5],1.93 µM
same,TGI,[6],1.83 µM
same,TGI,[7],2.69 µM
same,TGI,[8],2.34 µM
same,TGI,[9],1.7 µM
same,TGI,[10],2.03 µM
same,TGI,[11],1.17 µM
same,TGI,[12],1.48 µM
same,TGI,[13],1.7 µM
same,TGI,[14],0.976 µM
same,TGI,[15],1.8 µM
same,TGI,[16],1.47 µM
same,TGI,[17],0.708 µM
same,TGI,[18],1.24 µM
same,TGI,[19],1.23 µM
same,TGI,[20],2.09 µM
same,TGI,[21],0.456 µM
same,TGI,[22],0.317 µM
same,TGI,[23],3.02 µM
same,TGI,[24],0.636 µM
same,TGI,[25],1.27 µM
same,TGI,[26],1.13 µM
same,TGI,[27],64.6 µM
same,TGI,[28],0.761 µM
same,TGI,[29],0.66 µM
same,TGI,[30],1.8 µM
same,TGI,[57],0.659 µM
same,TGI,[31],> 22.6 µM
same,TGI,[32],3.76 µM
same,TGI,[33],1.49 µM
same,TGI,[34],2.4 µM
same,TGI,[36],1.47 µM
same,TGI,[37],0.893 µM
same,TGI,[38],1.98 µM
same,TGI,[39],3.15 µM
same,TGI,[40],2.37 µM
same,TGI,[42],4.33 µM
same,TGI,[43],0.911 µM
same,TGI,[44],0.548 µM
same,TGI,[45],> 100 µM
same,TGI,[46],0.923 µM
same,TGI,[47],1.37 µM
same,TGI,[48],1.39 µM
same,TGI,[49],1.69 µM
same,TGI,[51],1.13 µM
same,TGI,[52],1.4 µM
same,TGI,[58],0.737 µM
same,TGI,[53],7.98 µM
same,TGI,[59],1.33 µM
same,TGI,[55],0.257 µM
same,TGI,[56],0.845 µM
CC(=O)NC(CS)C(=O)NC(CO)C(=O)NC(CO)C(=O)NC(Cc1c[nH]c2ccccc12)C(=O)N1CCCC1C(=O)NC(CO)C(=O)NC(Cc1c[nH]c2ccccc12)C(=O)NC(Cc1c[nH]cn1)C(=O)NC(CO)C(=O)NC(Cc1c[nH]c2ccccc12)C(=O)NCC(=O)NCC(=O)NC(CC(=O)O)C(=O)NC(CCC(N)=O)C(=O)NC(CCCCN)C(=O)NC(Cc1ccccc1)C(=O)NC(CCCNC(=N)N)C(=O)NC(CCCCN)C(N)=O (stereo not given) (Ac-CSSWPSWHSWGGDQKFRK-NH2; configuration not given here),TGI,[1],> 25 µM
same,TGI,[2],> 25 µM
same,TGI,[3],> 25 µM
same,TGI,[4],> 25 µM
same,TGI,[5],> 25 µM
same,TGI,[6],> 25 µM
same,TGI,[7],> 25 µM
same,TGI,[8],> 25 µM
same,TGI,[9],> 25 µM
same,TGI,[10],> 25 µM
same,TGI,[11],> 25 µM
same,TGI,[12],> 25 µM
same,TGI,[13],> 25 µM
same,TGI,[15],> 25 µM
same,TGI,[16],> 25 µM
same,TGI,[17],> 25 µM
same,TGI,[18],> 25 µM
same,TGI,[19],> 25 µM
same,TGI,[20],> 25 µM
same,TGI,[21],> 25 µM
same,TGI,[22],> 25 µM
same,TGI,[23],> 25 µM
same,TGI,[24],> 25 µM
same,TGI,[25],> 25 µM
same,TGI,[26],> 25 µM
same,TGI,[27],> 25 µM
same,TGI,[28],> 25 µM
same,TGI,[29],> 25 µM
same,TGI,[30],> 25 µM
same,TGI,[57],> 25 µM
same,TGI,[31],> 25 µM
same,TGI,[32],> 25 µM
same,TGI,[33],> 25 µM
same,TGI,[34],> 25 µM
same,TGI,[35],> 25 µM
same,TGI,[36],> 25 µM
same,TGI,[37],> 25 µM
same,TGI,[38],> 25 µM
same,TGI,[39],> 25 µM
same,TGI,[40],> 25 µM
same,TGI,[41],> 25 µM
same,TGI,[42],> 25 µM
same,TGI,[43],> 25 µM
same,TGI,[44],> 25 µM
same,TGI,[45],> 25 µM
same,TGI,[46],> 25 µM
same,TGI,[47],> 25 µM
same,TGI,[48],> 25 µM
same,TGI,[49],> 25 µM
same,TGI,[50],> 25 µM
same,TGI,[51],> 25 µM
same,TGI,[52],> 25 µM
same,TGI,[58],> 25 µM
same,TGI,[53],> 25 µM
same,TGI,[59],> 25 µM
same,TGI,[54],> 25 µM
same,TGI,[55],> 25 µM
same,TGI,[56],> 25 µM
